Test results as given in patent US20140100184A1, “SELECTIVE INHIBITORS OF HISTONE […] DOT1L” (BAYLOR COLLEGE OF MEDICINE, priority 2012, published 2014).
Where a name gives a salt, the structure may show the parent alone. Read-outs that look alike come from different tables or passages of the source.

Assays:
[1] = biological target: T1, G9a (Mus musculus, UniProt Q9Z148); assay: Methyltransferase inhibition assay, G9a
T1 sequence (Q9Z148 1-1263): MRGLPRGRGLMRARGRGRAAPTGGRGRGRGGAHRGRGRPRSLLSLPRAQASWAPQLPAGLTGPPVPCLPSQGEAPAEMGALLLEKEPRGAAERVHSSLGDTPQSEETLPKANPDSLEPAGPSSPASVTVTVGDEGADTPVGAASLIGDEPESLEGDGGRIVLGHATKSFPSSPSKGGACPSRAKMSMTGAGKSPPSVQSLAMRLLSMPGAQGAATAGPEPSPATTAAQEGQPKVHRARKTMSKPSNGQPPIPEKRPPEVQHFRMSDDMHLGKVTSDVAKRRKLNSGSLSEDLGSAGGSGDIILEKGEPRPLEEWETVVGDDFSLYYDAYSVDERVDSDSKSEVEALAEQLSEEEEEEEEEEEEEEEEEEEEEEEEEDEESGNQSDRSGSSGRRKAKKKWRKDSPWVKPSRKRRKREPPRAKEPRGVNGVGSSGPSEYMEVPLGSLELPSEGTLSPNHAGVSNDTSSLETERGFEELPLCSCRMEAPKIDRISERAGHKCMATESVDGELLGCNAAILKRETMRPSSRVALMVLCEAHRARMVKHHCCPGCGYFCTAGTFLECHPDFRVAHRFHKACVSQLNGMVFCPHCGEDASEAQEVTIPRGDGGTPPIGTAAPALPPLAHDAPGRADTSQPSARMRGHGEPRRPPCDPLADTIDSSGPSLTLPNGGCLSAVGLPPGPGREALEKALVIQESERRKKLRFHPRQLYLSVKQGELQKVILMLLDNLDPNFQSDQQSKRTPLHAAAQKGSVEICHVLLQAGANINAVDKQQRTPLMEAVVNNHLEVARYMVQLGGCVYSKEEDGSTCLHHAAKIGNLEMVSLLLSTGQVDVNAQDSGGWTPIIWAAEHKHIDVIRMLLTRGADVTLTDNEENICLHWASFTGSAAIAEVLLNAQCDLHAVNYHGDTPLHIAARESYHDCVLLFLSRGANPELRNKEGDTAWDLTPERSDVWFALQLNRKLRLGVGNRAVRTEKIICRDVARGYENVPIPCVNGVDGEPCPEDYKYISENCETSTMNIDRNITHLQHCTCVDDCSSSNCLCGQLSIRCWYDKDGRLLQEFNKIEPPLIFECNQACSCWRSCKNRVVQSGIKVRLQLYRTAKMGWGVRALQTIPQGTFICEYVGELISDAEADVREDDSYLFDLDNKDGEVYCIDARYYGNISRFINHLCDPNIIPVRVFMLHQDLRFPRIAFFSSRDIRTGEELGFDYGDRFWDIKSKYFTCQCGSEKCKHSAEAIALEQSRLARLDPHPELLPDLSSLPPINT

[2] = biological target: T2, SUV39H1 (Homo sapiens, UniProt O43463); assay: biochemical; set-up: purchased BPS Biosciences (San Diego, Calif.)
T2 sequence (O43463 1-412): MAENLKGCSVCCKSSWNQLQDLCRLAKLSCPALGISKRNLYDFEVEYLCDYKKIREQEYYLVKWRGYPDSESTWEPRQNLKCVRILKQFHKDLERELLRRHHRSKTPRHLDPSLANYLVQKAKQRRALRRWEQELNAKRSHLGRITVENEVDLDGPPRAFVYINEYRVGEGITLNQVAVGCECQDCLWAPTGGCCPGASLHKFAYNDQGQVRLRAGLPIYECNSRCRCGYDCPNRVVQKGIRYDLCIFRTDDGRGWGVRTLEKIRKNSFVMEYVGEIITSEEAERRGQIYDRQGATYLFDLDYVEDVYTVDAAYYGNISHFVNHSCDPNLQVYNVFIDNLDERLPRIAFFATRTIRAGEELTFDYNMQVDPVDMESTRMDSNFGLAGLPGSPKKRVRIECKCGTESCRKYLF

[3] = biological target: T3, CARM1 (Homo sapiens, UniProt Q86X55); assay: biochemical; set-up: GST (from pGEX-KG vector) (N); made in house; host or cells: E. coli (as for hDOT1L); plasmid pGEX-KG-CARM1 from Dr. Qin Feng
T3 sequence (Q86X55 1-608): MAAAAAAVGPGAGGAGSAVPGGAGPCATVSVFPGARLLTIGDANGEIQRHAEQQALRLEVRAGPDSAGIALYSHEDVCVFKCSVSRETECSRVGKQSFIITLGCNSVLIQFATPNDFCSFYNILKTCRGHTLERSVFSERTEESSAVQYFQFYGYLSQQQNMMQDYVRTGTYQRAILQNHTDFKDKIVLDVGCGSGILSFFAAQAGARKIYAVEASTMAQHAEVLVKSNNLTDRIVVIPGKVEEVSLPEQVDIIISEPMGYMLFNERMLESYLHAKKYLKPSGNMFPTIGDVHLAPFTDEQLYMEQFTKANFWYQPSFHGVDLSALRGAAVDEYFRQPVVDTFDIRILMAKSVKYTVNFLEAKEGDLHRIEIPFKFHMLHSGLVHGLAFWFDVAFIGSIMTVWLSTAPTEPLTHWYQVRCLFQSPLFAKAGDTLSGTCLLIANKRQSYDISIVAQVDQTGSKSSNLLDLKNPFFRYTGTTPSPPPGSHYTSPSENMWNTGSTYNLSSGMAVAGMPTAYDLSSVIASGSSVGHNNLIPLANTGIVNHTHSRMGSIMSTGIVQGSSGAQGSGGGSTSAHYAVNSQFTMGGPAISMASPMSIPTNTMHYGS

[4] = system: CARM1, PRMT1, G9a and SUV39H1; assay: Inhibition of other methyltransferases, summarised over the panel; conditions: for activity against other methyltransferases: in words
[5] = biological target: T4, PRMT1 (Homo sapiens, UniProt Q99873); assay: Methyltransferase inhibition assay, PRMT1; format: biochemical; set-up: purchased BPS Biosciences (San Diego, Calif.)
T4 sequence (Q99873 whole entry): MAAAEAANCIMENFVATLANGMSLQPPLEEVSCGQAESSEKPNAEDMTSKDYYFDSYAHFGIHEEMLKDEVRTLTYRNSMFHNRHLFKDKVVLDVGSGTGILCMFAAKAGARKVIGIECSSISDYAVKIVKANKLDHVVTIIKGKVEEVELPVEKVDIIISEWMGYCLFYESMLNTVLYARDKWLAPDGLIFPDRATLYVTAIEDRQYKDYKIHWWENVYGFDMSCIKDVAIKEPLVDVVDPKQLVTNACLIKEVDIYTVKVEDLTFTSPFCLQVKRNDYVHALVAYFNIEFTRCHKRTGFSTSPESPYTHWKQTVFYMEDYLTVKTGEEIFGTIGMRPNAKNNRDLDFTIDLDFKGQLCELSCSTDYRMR

[6] = biological target: T5, DOT1L (Homo sapiens, UniProt Q8TEK3); conditions: literature values; read-out: Km value for DOT1L, recent publication; cited from earlier work
T5 construct: Human DOT1 L(1-472) was expressed and purified as described in the literature; GST (N, cleaved yes); made in house; host or cells: E. coli BL21-CodonPlus (Agilent), plasmid pGEX-KG-hDOT1L(1-472)
T5 sequence (Q8TEK3 1-472): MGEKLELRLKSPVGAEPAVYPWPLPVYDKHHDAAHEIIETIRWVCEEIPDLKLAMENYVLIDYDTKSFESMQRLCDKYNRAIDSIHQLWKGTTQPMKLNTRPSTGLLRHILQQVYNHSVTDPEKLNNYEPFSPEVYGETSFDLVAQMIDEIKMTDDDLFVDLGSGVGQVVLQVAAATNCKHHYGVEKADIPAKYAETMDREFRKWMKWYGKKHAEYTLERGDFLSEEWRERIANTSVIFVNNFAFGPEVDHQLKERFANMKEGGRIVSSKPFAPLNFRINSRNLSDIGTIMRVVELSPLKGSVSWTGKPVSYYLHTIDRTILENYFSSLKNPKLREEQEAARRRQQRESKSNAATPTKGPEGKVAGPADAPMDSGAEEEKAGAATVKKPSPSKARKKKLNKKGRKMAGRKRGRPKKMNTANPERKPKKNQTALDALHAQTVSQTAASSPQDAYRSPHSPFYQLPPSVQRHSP

[7] = biological target: T2, SUV39H1; conditions: read-out: Km value of SAM for SUV39H1
[8] = biological target: T1, G9a; conditions: read-out: Km value of SAM for G9a
[9] = biological target: T4, PRMT1; conditions: read-out: Km value of SAM for PRMT1; from the literature; cited from earlier work
[10] = biological target: T3, CARM1; conditions: read-out: Km value of SAM for CARM1
[11] = biological target: T5, DOT1L; assay: Determination of Km values of SAM and substrate, DOT1L; format: biochemical; conditions: 30° C., 10 min, pH=8.0

Compound	Ki [1]	IC50 [2]	IC50 [1]	IC50 [3]	further results
CNc1ncnc2c1ncn2[C@@H]1O[C@H](CSCC[C@H](N)C(=O)O)[C@@H](O)[C@H]1O [Compound 1, S-(N^6-Methyl-adenosyl)-L-homocysteine]	> 100 µM				
N[C@@H](CCSC[C@H]1O[C@@H](n2cnc3c(NCc4ccccc4)ncnc32)[C@H](O)[C@@H]1O)C(=O)O [Compound 2, S-(N^6-Benzyl-adenosyl)-L-homocysteine]	> 100 µM				Ki [2]: > 100 µM; activity on G9a [1]: inactive; Ki [3]: 18 µM
Nc1ncnc2c1ncn2[C@@H]1O[C@H](CN(CCI)CC[C@H](N)C(=O)O)C(O)[C@@H]1O (stereo partly drawn) [Compound 3, N^γ-(5′-Adenosyl)-N^γ-(2-iodoethyl)-(S)-2,4-diaminobutyric acid hydrochloride]		> 100 µM	> 100 µM	46.4 µM	
Nc1ncnc2c1ncn2[C@@H]1O[C@H](CN(CCI)CCC[C@H](N)C(=O)O)C(O)[C@@H]1O (stereo partly drawn) [Compound 4, N^δ-(5′-Adenosyl)-N^δ-(2-iodoethyl)-(S)-2,5-diaminopentanoic-acid hydrochloride]		> 100 µM	1.8 µM	1.1 µM	IC50 ([4]; read-out: IC50 values on other methyltransferases, span over the four enzymes): ≥ 1.1 µM
CNc1ncnc2c1ncn2[C@@H]1O[C@H](CN(CCI)CCC[C@H](N)C(=O)O)C(O)[C@@H]1O (stereo partly drawn) [Compound 5, N^δ-[5′-(N^6-Methyl-adenosyl)]-N^δ-(2-iodoethyl)-(S)-2,5-diaminopentanoic acid hydrochloride]		> 100 µM	> 100 µM	> 100 µM	activity against other methyltransferases [4]: essentially inactive
N[C@@H](CCCN(CCI)C[C@H]1O[C@@H](n2cnc3c(NCc4ccccc4)ncnc32)[C@@H](O)C1O)C(=O)O (stereo partly drawn) [Compound 6, N^δ-[5′-(N^6-Benzyl-adenosyl)]-N^δ-(2-iodoethyl)-(S)-2,5-diaminopentanoic acid hydrochloride]		> 100 µM	> 100 µM	> 100 µM	IC50 [5]: > 100 µM; activity against other methyltransferases [4]: essentially inactive
Nc1ncnc2c1ncn2[C@@H]1O[C@H](CSCC[C@H](N)C(=O)O)[C@@H](O)[C@H]1O [SAH, S-(5′-adenosyl)-L-homocysteine, reference compound]	0.57 µM				
C[S+](CC[C@H](N)C(=O)O)C[C@H]1O[C@@H](n2cnc3c(N)ncnc32)[C@H](O)[C@@H]1O (stereo partly drawn) [SAM, S-(5′-adenosyl)-L-methionine]					Km [6]: 0.65 µM; Km [7]: 27.9 µM; Km [8]: 14.1 µM; Km [9]: 6 µM; Km [10]: 1.6 µM; Km [11]: 0.76 µM
